Converted amounts (≈) assume the structure as drawn. Counter-ions that a name gives are not always drawn. Like-named read-outs stand apart in the source and are kept apart here.
Columns and labels:
MRSA = test: MIC by broth microdilution, MRSA isolates; assay type: cell-based; conditions: Staphylococcus aureus, MRSA; for MIC: Table 1 (Example 3)
E coli wild type = test: MIC by broth microdilution, wild type E coli; assay type: cell-based; conditions: Escherichia coli; for MIC50: Table 1 (Example 1)
P aeruginosa = test: MIC by broth microdilution, P aeruginosa isolates; assay type: cell-based, Pseudomonas aeruginosa; conditions: for MIC: strain AG220 Pseudomonas aeruginosa ATCC27853, read-out: MIC AG220 P. aerugin; for MIC50: Pseudomonas aeruginosa
[1] = tested on: E coli carrying specific resistance determinants; test: MIC by broth microdilution, E coli carrying specific resistance determinants; assay type: cell-based; conditions: Escherichia coli
M. abscessus = test: MIC by broth microdilution, M. abscessus; assay type: cell-based; conditions: Mycobacteroides abscessus
[2] = tested on: wild type bacterial ribosomes; test: in-vitro translation assay, bacterial ribosomes; assay type: biochemical; conditions: for IC50: bacterial ribosome, read-out: IC50 Bac
Description: (§1) The antiribosomal activity of these compounds was investigated with cell-free translation assays using both wild type bacterial ribosomes and hybrid ribosomes carrying eukaryotic decoding A sites enabling the prediction of selectivity.

[3] = tested on: A1555G mutant mitochondrial ribosome (human chimeric); test: in-vitro translation assay, human chimeric ribosomes, A1555G mutant mitochondrial decoding site; assay type: biochemical; conditions: Table 3 (Example 3)
Description: as §1

[4] = tested on: cytosolic ribosome (human chimeric); assay type: biochemical; conditions: for IC50: cytosolic, read-out: IC50 Cyt
Description: as §1

[5] = tested on: mitochondrial ribosome (human chimeric); assay type: biochemical; conditions: for IC50: mitochondrial, read-out: IC50 Mit
Description: as §1

[6] = tested on: Klebsiella pneumonia AG215; test: MIC by broth microdilution, Klebsiella pneumonia; assay type: cell-based; conditions: Klebsiella pneumoniae; strain AG215 Klebsiella pneumonia; read-out: MIC AG215 K. pneumon
[7] = tested on: Acinetobacter baumannii pittii AG225; test: MIC by broth microdilution, Acinetobacter baumannii; assay type: cell-based; conditions: strain AG225 Acinetobacter baumannii pittii
[8] = tested on: Enterobacter cloacae AG290; test: MIC by broth microdilution, Enterobacter cloacae; assay type: cell-based; conditions: strain AG290 Enterobacter cloacae; read-out: MIC AG290 E. cloacae
N. gonorrhoeae = test: Disk diffusion, N. gonorrhoeae; assay type: cell-based; conditions: Neisseria gonorrhoeae
M. smegmatis SZ380 = test: MIC by broth microdilution, M. smegmatis; conditions: Mycolicibacterium smegmatis
[9] = ATCC25922, strain AG212 E. coli (ATCC25922), read-out: MIC AG212 E. coli
[10] = SZ380, read-out: MIC SZ380 M. smegmatis, strain SZ380 Mycobacterium smegmatis
[11] = strain AG38, Table 1 (Example 1), read-out: MIC50 MRSA AG38
[12] = strain AG44, Table 1 (Example 1), read-out: MIC50 MRSA AG44
[13] = AG006 wt, Table 2 (Example 1), read-out: MIC E coli AG006 wt
[14] = AG102 wt, Table 2 (Example 1), read-out: MIC E coli AG102 wt
[15] = AG160 wt, Table 2 (Example 1), read-out: MIC E coli AG160 wt
[16] = WT, Table 3 (Example 1), read-out: MIC WT
[17] = clinical isolate AG160 WT, Table 2 (Example 4), read-out: MIC AG160 E. coli WT
[18] = engineered strain pH430 WT, Table 2 (Example 4), read-out: MIC pH430 E. coli WT
[19] = strain AG01, read-out: MIC50 E coli AG01
[20] = strain AG03, read-out: MIC50 E coli AG03
[21] = strain AG55, read-out: MIC50 E coli AG55
[22] = read-out: MIC AG037 E. coli APH(3′)-III
[23] = read-out: MIC AG163 E. coli APH(3′)-I
[24] = read-out: MIC AG166 E. coli APH(3′)-II
[25] = read-out: MIC E coli AG007 ANT(3″) AAC(3)-I
[26] = read-out: MIC E coli AG103 ArmA
[27] = read-out: MIC E coli AG163/164 APH(3′)-Ia
[28] = read-out: MIC E coli AG166 APH(3′)-IIa
[29] = read-out: MIC pH421 E. coli APH(3′)-I
[30] = read-out: MIC pH422 E. coli APH(3′)-II
[31] = read-out: MIC pH423 E. coli APH(3′)-VI

## CCCNC1C(OC2C(N)CC(N)C(O)C2OC2OC(CO)C(OC3OC(CN)C(O)C(O)C3N)C2O)OC(CO)C(O)C1O (centres unmarked) [Compound 128, 2′-N-Propyl-paromomycin acetate salt]
MRSA; clinical isolate AG038, read-out: MIC MRSA AG038
  MIC: 8 to 16 µg/mL
MRSA; clinical isolate AG039, read-out: MIC MRSA AG039
  MIC: > 128 µg/mL
MRSA; clinical isolate AG042, read-out: MIC MRSA AG042
  MIC: > 128 µg/mL
MRSA; clinical isolate AG044, read-out: MIC MRSA AG044
  MIC: 4 µg/mL
E coli wild type; [9]
  MIC: 4 µg/mL
E coli wild type; WT, Table 4 (Example 3), read-out: MIC E. coli WT
  MIC: 2 µg/mL
E coli wild type; WT, Table 5 (Example 3), read-out: MIC E. coli WT
  MIC: 2 µg/mL
E coli wild type; clinical isolate AG001, Table 1 (Example 3), read-out: MIC E coli AG001
  MIC: 16 µg/mL
E coli wild type; clinical isolate AG003, Table 1 (Example 3), read-out: MIC E coli AG003
  MIC: 16 µg/mL
E coli wild type; clinical isolate AG055, Table 1 (Example 3), read-out: MIC E coli AG055
  MIC: 16 µg/mL
P aeruginosa
  MIC: > 64 µg/mL
[1]; read-out: MIC E. coli AAC(2′) AG106
  MIC: 2 µg/mL
[1]; read-out: MIC E. coli AAC(2′) pH434
  MIC: 4 µg/mL
[1]; read-out: MIC E. coli pGB2armA armA
  MIC: 4 to 8 µg/mL
[1]; read-out: MIC E. coli pH434 AAC(2′)-Ib
  MIC: 4 µg/mL
M. abscessus; ATCC19977, ATCC 19977 WT, Table 5 (Example 3), read-out: MIC M. abscessus ATCC 19977 WT
  MIC: 32 µg/mL
M. abscessus; read-out: MIC M. abscessus engineered Δeis2
  MIC: 1 µg/mL
M. abscessus; ATCC, Table 4 (Example 3), read-out: MIC M. abscessus ATCC
  MIC: 32 µg/mL
M. abscessus; Clin. Isol., Table 4 (Example 3), read-out: MIC M. abscessus Clin. Isol.
  MIC: 64 µg/mL
[2]; Table 4 (Example 3)
  IC50: 0.05 µM
[2]; compared with the parent compound
  selectivity for the bacterial ribosome over mitochondrial (wild type, A1555G mutant) and cytosolic ribosomes, in words: increased selectivity for the bacterial ribosome
[3]
  Selectivity for Binding to the Bacterial Ribosome over the Mutant Mitochondrial Ribosome: 763
[4]; Table 3 (Example 3)
  Selectivity for Binding to the Bacterial Ribosome over the Cytosolic Ribosome: 425
[4]; Table 4 (Example 3)
  IC50: 21 µM
[5]; Table 3 (Example 3)
  Selectivity for Binding to the Bacterial Ribosome over the Mitochondrial Ribosome: 3066
[5]; Table 4 (Example 3)
  IC50: 153 µM
[6]
  MIC: 2 µg/mL
[7]
  MIC: 4 µg/mL
[8]
  MIC: 2 µg/mL
N. gonorrhoeae
  zone of inhibition at 25 nmol/disc: 11 mm
M. smegmatis SZ380; SZ380, read-out: MIC M. smegmatis SZ380 WT, SZ380 WT, Table 5 (Example 3)
  MIC: 2 µg/mL
M. smegmatis SZ380; [10]
  MIC: 2 µg/mL

## NC[C@@H]1O[C@H](O[C@@H]2C(O)[C@H](O[C@@H]3C(O)[C@H](N)CC(N)[C@H]3O[C@H]3OC(CO)[C@@H](O)[C@H](O)C3N)O[C@@H]2CNC=O)C(N)C(O)[C@@H]1O (some centres unmarked) [Compound 137, 5″-Deoxy-5″-formamido-paromomycin acetate salt]
MRSA; read-out: MIC50 MRSA AG39
  MIC50: > 128 µg/mL
MRSA; read-out: MIC50 MRSA AG42
  MIC50: > 128 µg/mL
MRSA; [11]
  MIC50: 4 µg/mL
MRSA; [12]
  MIC50: 2 to 4 µg/mL
E coli wild type; [13]
  MIC: 1 µg/mL
E coli wild type; [14]
  MIC: 1 µg/mL
E coli wild type; [15]
  MIC: 2 µg/mL
E coli wild type; [9]
  MIC: 2 µg/mL
E coli wild type; [16]
  MIC: 1 to 2 µg/mL
E coli wild type; [17]
  MIC: 2 µg/mL
E coli wild type; [18]
  MIC: 1 to 2 µg/mL
E coli wild type; [19]
  MIC50: 4 µg/mL
E coli wild type; [20]
  MIC50: 4 µg/mL
E coli wild type; [21]
  MIC50: 4 µg/mL
P aeruginosa; read-out: MIC50 P aeruginosa AG31
  MIC50: 128 µg/mL
P aeruginosa; read-out: MIC50 P aeruginosa AG32
  MIC50: 128 µg/mL
P aeruginosa; read-out: MIC50 P aeruginosa AG33
  MIC50: > 128 µg/mL
P aeruginosa; read-out: MIC50 P aeruginosa AG86
  MIC50: > 128 µg/mL
P aeruginosa
  MIC: > 64 µg/mL
[1]; [22]
  MIC: 128 µg/mL
[1]; [23]
  MIC: 64 µg/mL
[1]; [24]
  MIC: > 128 µg/mL
[1]; read-out: MIC APH(3)-VI
  MIC: > 64 µg/mL
[1]; read-out: MIC APH(3′)-I
  MIC: > 64 µg/mL
[1]; read-out: MIC APH(3′)-II
  MIC: > 64 µg/mL
[1]; read-out: MIC APH(3′)-III
  MIC: > 64 µg/mL
[1]; [25]
  MIC: 4 µg/mL
[1]; [26]
  MIC: 8 µg/mL
[1]; [27]
  MIC: 32 to 64 µg/mL
[1]; [28]
  MIC: > 128 µg/mL
[1]; [29]
  MIC: > 64 µg/mL
[1]; [30]
  MIC: > 64 µg/mL
[1]; [31]
  MIC: > 64 µg/mL
[2]; Table 3 (Example 1)
  IC50: 0.04 µM
[4]; Table 3 (Example 1)
  IC50: 90 µM
[5]; Table 3 (Example 1)
  IC50: 144 µM
[6]
  MIC: 1 µg/mL
[7]
  MIC: 2 µg/mL
[8]
  MIC: 1 to 2 µg/mL
N. gonorrhoeae
  zone of inhibition at 25 nmol/disc: 11 mm
M. smegmatis SZ380; [10]
  MIC: 1 µg/mL

## NCC1OC(OC2C(CNC=O)OC(OC3C(O)C(N)CC(N)C3OC3OC(CO)C(O)CC3N)C2O)C(N)C(O)C1O (centres unmarked) [Compound 153, 3′,5″-Dideoxy-5″-formamido-paromomycin]
MRSA; [11]
  MIC50: 4 µg/mL (≈ 6.38 µM)
MRSA; strain AG39, Table 1 (Example 1), read-out: MIC50 MRSA AG39
  MIC50: > 128 µg/mL
MRSA; strain AG42, Table 1 (Example 1), read-out: MIC50 MRSA AG42
  MIC50: > 128 µg/mL
MRSA; [12]
  MIC50: 4 µg/mL (≈ 6.38 µM)
E coli wild type; [13]
  MIC: 2 µg/mL (≈ 3.19 µM)
E coli wild type; [14]
  MIC: 2 µg/mL (≈ 3.19 µM)
E coli wild type; [15]
  MIC: 2 to 4 µg/mL (≈ 3.19 to 6.38 µM)
E coli wild type; [9]
  MIC: 4 µg/mL (≈ 6.38 µM)
E coli wild type; [16]
  MIC: 2 µg/mL (≈ 3.19 µM)
E coli wild type; [17]
  MIC: 2 to 4 µg/mL (≈ 3.19 to 6.38 µM)
E coli wild type; [18]
  MIC: 2 µg/mL (≈ 3.19 µM)
E coli wild type; [19]
  MIC50: 8 to 16 µg/mL (≈ 12.8 to 25.5 µM)
E coli wild type; [20]
  MIC50: 8 µg/mL (≈ 12.8 µM)
E coli wild type; [21]
  MIC50: 8 to 16 µg/mL (≈ 12.8 to 25.5 µM)
P aeruginosa; strain AG31, Table 1 (Example 1), read-out: MIC50 P aeruginosa AG31
  MIC50: 32 to 64 µg/mL (≈ 51.1 to 102 µM)
P aeruginosa; strain AG32, Table 1 (Example 1), read-out: MIC50 P aeruginosa AG32
  MIC50: 32 µg/mL (≈ 51.1 µM)
P aeruginosa; strain AG33, Table 1 (Example 1), read-out: MIC50 P aeruginosa AG33
  MIC50: > 32 µg/mL
P aeruginosa
  MIC: 8 µg/mL (≈ 12.8 µM)
[1]; [22]
  MIC: 2 µg/mL (≈ 3.19 µM)
[1]; [23]
  MIC: 4 to 8 µg/mL (≈ 6.38 to 12.8 µM)
[1]; [24]
  MIC: 8 to 16 µg/mL (≈ 12.8 to 25.5 µM)
[1]; read-out: MIC APH(3)-VI
  MIC: 2 to 4 µg/mL (≈ 3.19 to 6.38 µM)
[1]; read-out: MIC APH(3′)-I
  MIC: 2 µg/mL (≈ 3.19 µM)
[1]; read-out: MIC APH(3′)-II
  MIC: 2 µg/mL (≈ 3.19 µM)
[1]; read-out: MIC APH(3′)-III
  MIC: 2 µg/mL (≈ 3.19 µM)
[1]; [25]
  MIC: 4 µg/mL (≈ 6.38 µM)
[1]; [26]
  MIC: 32 µg/mL (≈ 51.1 µM)
[1]; [27]
  MIC: 4 to 8 µg/mL (≈ 6.38 to 12.8 µM)
[1]; [28]
  MIC: 8 to 16 µg/mL (≈ 12.8 to 25.5 µM)
[1]; [29]
  MIC: 2 µg/mL (≈ 3.19 µM)
[1]; [30]
  MIC: 4 µg/mL (≈ 6.38 µM)
[1]; [31]
  MIC: 2 to 4 µg/mL (≈ 3.19 to 6.38 µM)
[2]; Table 3 (Example 1)
  IC50: 0.12 µM
[4]; Table 3 (Example 1)
  IC50: 90 µM
[5]; Table 3 (Example 1)
  IC50: 144 µM
[6]
  MIC: 1 to 2 µg/mL (≈ 1.6 to 3.19 µM)
[7]
  MIC: 4 µg/mL (≈ 6.38 µM)
[8]
  MIC: 2 µg/mL (≈ 3.19 µM)
N. gonorrhoeae
  zone of inhibition at 25 nmol/disc: 13 mm
M. smegmatis SZ380; [10]
  MIC: 1 µg/mL (≈ 1.6 µM)

From patent publication US11466044B2 (WAYNE STATE UNIVERSITY, priority 2017, dated 2022)
